How the values were obtained:
SRC = SRC (Homo sapiens, UniProt P12931); test: SRC Biochemical Assay Protocol (microfluidic mobility shift assay, FLPeptide4 substrate)
Method in brief: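 Recombinant SRC (0.26 nM) preincubated 30 min at RT with compound (0.0017–100 μM) and 1.5 μM FLPeptide4, then 50 μM ATP added; 90 min reaction in HEPES pH 7.4, 10 mM MgCl2, 1% DMSO, EDTA-quenched. Phosphopeptide quantified by microfluidic mobility shift; IC50 from 4-parameter logistic fit.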

[1] = tested on: phospho-S6RP (Ser 235/236) in RBE cells; test: Cellular Proliferation Protocol (cellular phospho-S6RP HTRF), RBE cells; type: cell-based; settings: 6 hours treatment, RBE or SNU-1079 cells, cell line not given
Method in brief: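 RBE cells, 2000/well, seeded 24 h before 6 h compound treatment at 37° C. Lysates were probed with a Eu-cryptate/d2 HTRF antibody sandwich for phospho-S6RP (Ser 235/236), incubated overnight at room temperature. Signal normalised to DMSO control and IC50 fitted to a 4-parameter curve.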

RBE cells = test: Cell Viability Protocol (CellTiterGlo), RBE cells; type: cell-based; settings: RBE or SNU-1079 cells, 72 or 120 hour, cell line and time not given
Method in brief: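 RBE cells plated at 1200/well in RPMI 1640 with 10% FBS, incubated 24 h, then dosed with compound from DMSO stocks and incubated 72 or 120 h at 37° C. CellTiterGlo luminescence normalised to DMSO control; IC50 from 4-parameter fit.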

Row | IC50 (SRC) [nM] | Compound | IC50 ([1]; 6 h) [nM] | IC50 (RBE cells) [nM] | IC50 [1] [nM]
1 | ≤ 10 | Cn1c(C#CC2CC3(C2)CN(C(=O)/C=C/CN2CCC2)C3)c(-c2ccc(Oc3ccccc3)cc2)c2c(N)ncnc21 [II-173, (E)-1-(6-((4-amino-7-methyl-5-(4-phenoxyphenyl)-7H-pyrrolo[2,3-d]pyrimidin-6-yl)ethynyl)-2-azaspiro[3.3]heptan-2-yl)-4-(azetidin-1-yl)but-2-en-1-one] | 10 to 1000 | ≤ 10 | –
2 | 10 to 1000 | C=CC(=O)NC1(C(=O)N2CCC(C#Cc3c(-c4ccc(Oc5ccccc5)cc4)c4c(N)ncnc4n3C)CC2)CN(C)C1 [II-196, N-(3-(4-((4-amino-7-methyl-5-(4-phenoxyphenyl)-7H-pyrrolo[2,3-d]pyrimidin-6-yl)ethynyl)piperidine-1-carbonyl)-1-methylazetidin-3-yl)acrylamide] | ≤ 10 | ≤ 10 | –
3 | ≤ 10 | C=CC(=O)N1CCC(N2CC(C#Cc3c(-c4ccc(Oc5ccccc5)cc4)c4c(N)ncnc4n3C)C2)C[C@@H]1COC (stereo partly drawn) [II-186, 1-((2R)-4-(3-((4-amino-7-methyl-5-(4-phenoxyphenyl)-7H-pyrrolo[2,3-d]pyrimidin-6-yl)ethynyl)azetidin-1-yl)-2-(methoxymethyl)piperidin-1-yl)prop-2-en-1-one] | ≤ 10 | ≤ 10 | –
4 | 10 to 1000 | C=CC(=O)N1CC[C@@H](N2CC(C#Cc3c(-c4ccc(Oc5cccc(C)n5)c(OC)c4)c4c(N)ncnc4n3C)C2)[C@H](O)C1 [II-217, 1-((3R,4R)-4-(3-((4-amino-5-(3-methoxy-4-((6-methylpyridin-2-yl)oxy)phenyl)-7-methyl-7H-pyrrolo[2,3-d]pyrimidin-6-yl)ethynyl)azetidin-1-yl)-3-hydroxypiperidin-1-yl)prop-2-en-1-one] | 10 to 1000 | 10 to 1000 | –
5 | 10 to 1000 | C=CC(=O)N1CCC(N2CC(C#Cc3c(-c4cc(OC)c(Cl)c(OC)c4)c4c(N)ncnc4n3C)C2)CC1 [II-91] | – | 10 to 1000 | 10 to 1000
6 | 10 to 1000 | COCCn1c(C#CC2CN(C(=O)/C=C/CN(C)C)C2)c(-c2ccc(Oc3ccccc3)cc2)c2c(N)ncnc21 [II-191, (E)-1-(3-((4-amino-7-(2-methoxyethyl)-5-(4-phenoxyphenyl)-7H-pyrrolo[2,3-d]pyrimidin-6-yl)ethynyl)azetidin-1-yl)-4-(dimethylamino) but-2-en-1-one] | 10 to 1000 | 10 to 1000 | –

Further lines, the compound ahead of its results:

Row | Compound | IC50 (SRC) [nM] | IC50 ([1]; 6 h) [nM] | IC50 (RBE cells) [nM] | IC50 [1] [nM]
7 | C=CC(=O)N1CC[C@@H](N2CC(C#Cc3c(-c4ccc(C5CC5)c(OC)c4)c4c(N)ncnc4n3C)C2)[C@@H](O)C1 [II-67] | 10 to 1000 | – | 10 to 1000 | 10 to 1000
8 | C=CC(=O)N1CC[C@@H](N2CC(C#Cc3c(-c4ccc(C5CC5)cc4)c4c(N)ncnc4n3C)C2)[C@@H](O)C1 [II-69] | 10 to 1000 | – | 10 to 1000 | 10 to 1000
9 | Cc1ccnc(Oc2ccc(-c3c(C#C[C@@H]4[C@H]5CN(C(=O)/C=C/CN(C)C)C[C@@H]45)n(C)c4ncnc(N)c34)cc2)c1 [II-241, (E)-1-((1R,5S,6s)-6-((4-amino-7-methyl-5-(4-((4-methylpyridin-2-yl)oxy)phenyl)-7H-pyrrolo[2,3-d]pyrimidin-6-yl)ethynyl)-3-azabicyclo[3.1.0]hexan-3-yl)-4-(dimethylamino) but-2-en-1-one] | 10 to 1000 | – | 10 to 1000 | 10 to 1000
10 | C=CC(=O)N1CCC(N2CC(C#Cc3c(-c4ccc(Oc5ccccc5)c(OC(F)F)c4)c4c(N)ncnc4n3C)C2)CC1 [II-35, 1-(4-(3-((4-amino-5-(3-(difluoromethoxy)-4-phenoxyphenyl)-7-methyl-7H-pyrrolo[2,3-d]pyrimidin-6-yl)ethynyl)azetidin-1-yl)piperidin-1-yl)prop-2-en-1-one] | 10 to 1000 | 10 to 1000 | 10 to 1000 | –
11 | 1-((3S,4R)-4-(3-((4-amino-7-methyl-5-(4-(1-methyl-cyclopropoxy)phenyl)-7H-pyrrolo[2,3-d]pyrimidin-6-yl)ethynyl)azetidin-1-yl)-3-hydroxypiperidin-1-yl)prop-2-en-1-one [II-17] | 10 to 1000 | – | ≤ 10 | ≤ 10

From patent publication US20250154154A1 (Relay Binney Street, 2nd Floor, priority 2020, published 2025)
